How the values were obtained:
[1] = target: T1, recombinant N-terminal GST-tagged human Rho kinase 1 (ROCK1, amino acids 1-535) (Homo sapiens, UniProt Q13464); assay: In vitro Rho kinase assay (luciferase-based ATP consumption), ROCK1; format: biochemical; details: recombinant GST-tagged human ROCK1, luciferase-based ATP consumption; read-out: ROCK1 IC50
T1 construct: ROCK1, amino acids 1-535; purchased Invitrogen Inc. PV-3691
Summary of the method: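 GST-ROCK1 (aa 1-535) at 0.82 μg/ml with 100 μg/ml S6 peptide and 3 µM ATP in Tris pH 7.5 buffer with MgCl2, CaCl2, EGTA, BSA; compound added after reaction start, 2 h at 30 °C. Remaining ATP read by luciferase luminescence; efficacy as percent of H-1152P positive control.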

[2] = target: T2, recombinant N-terminal GST-tagged human Rho kinase 2 (ROCK2, amino acids 1-552) (Homo sapiens, UniProt O75116); assay: In vitro Rho kinase assay (luciferase-based ATP consumption), ROCK2; format: biochemical; details: recombinant GST-tagged human ROCK2, luciferase-based ATP consumption; read-out: ROCK2 IC50
T2 construct: ROCK2, amino acids 1-552; purchased Invitrogen Inc. PV3759
Summary of the method: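 GST-ROCK2 (aa 1-552, 0.82 μg/ml) with 100 μg/ml S6 peptide and 3 µM ATP in Tris pH 7.5 buffer with MgCl2/CaCl2/EGTA/BSA, compound added just after reaction start, 2 h at 30 °C. Remaining ATP read by luciferase luminescence. Efficacy expressed as percentage of H-1152P positive control.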

[3] = tested on: lasered (hypertensive) eyes of conscious cynomolgus monkeys; assay: Acute IOP response in lasered (hypertensive) eyes of conscious cynomolgus monkeys; format: in vivo; details: compound concentration 0.3%, instilled in right eye; IOP measured at 1, 3 and 6 hours, peak reduction
From the text: Acute IOP Response in Lasered (Hypertensive) Eyes of Conscious Cynomolgus Monkeys
Intraocular pressure (IOP) can be determined with an Alcon Pneumatonometer after light corneal anesthesia with 0.1% proparacaine. Eyes are washed with saline after each measurement. After a baseline IOP measurement, test compound is instilled in one […] aliquot to the right eyes only of nine cynomolgus monkeys. Vehicle is instilled in the right eyes of six additional animals. Subsequent IOP measurements are taken at 1, 3, and 6 hours, and peak reduction in IOP is reported below in Table 2 as percent of IOP lowering versus the control for each of the given concentrations of compound.
A more detailed description of the assay used herein may be found in May et al., “Evaluation of the Ocular Hypotensive Response of Serotonin 5-HT1A and 5-HT2 Receptor Ligands in Conscious Ocular Hypertensive Cynomolgus Monkeys,” J. of Pharmacology and Experimental Therapeutics, vol. 306(1), pp. 301-309 (2003), the disclosure of which is hereby incorporated by reference as if written herein in its entirety.

T2 sequence (O75116 1-552): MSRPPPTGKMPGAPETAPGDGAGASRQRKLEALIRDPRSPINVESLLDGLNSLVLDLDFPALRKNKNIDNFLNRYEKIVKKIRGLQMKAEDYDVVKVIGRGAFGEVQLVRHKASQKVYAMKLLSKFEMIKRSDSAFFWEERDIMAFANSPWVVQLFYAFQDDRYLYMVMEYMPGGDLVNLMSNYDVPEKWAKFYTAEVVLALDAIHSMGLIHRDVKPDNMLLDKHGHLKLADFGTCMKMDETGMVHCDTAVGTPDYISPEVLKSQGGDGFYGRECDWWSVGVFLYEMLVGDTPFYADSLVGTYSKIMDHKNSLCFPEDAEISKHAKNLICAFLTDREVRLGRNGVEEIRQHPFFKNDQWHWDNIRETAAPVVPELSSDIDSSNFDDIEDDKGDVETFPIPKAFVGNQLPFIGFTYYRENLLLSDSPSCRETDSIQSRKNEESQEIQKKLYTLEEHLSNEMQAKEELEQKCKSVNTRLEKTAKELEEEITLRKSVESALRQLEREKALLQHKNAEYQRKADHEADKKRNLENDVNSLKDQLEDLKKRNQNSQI
T1 sequence (Q13464 1-535): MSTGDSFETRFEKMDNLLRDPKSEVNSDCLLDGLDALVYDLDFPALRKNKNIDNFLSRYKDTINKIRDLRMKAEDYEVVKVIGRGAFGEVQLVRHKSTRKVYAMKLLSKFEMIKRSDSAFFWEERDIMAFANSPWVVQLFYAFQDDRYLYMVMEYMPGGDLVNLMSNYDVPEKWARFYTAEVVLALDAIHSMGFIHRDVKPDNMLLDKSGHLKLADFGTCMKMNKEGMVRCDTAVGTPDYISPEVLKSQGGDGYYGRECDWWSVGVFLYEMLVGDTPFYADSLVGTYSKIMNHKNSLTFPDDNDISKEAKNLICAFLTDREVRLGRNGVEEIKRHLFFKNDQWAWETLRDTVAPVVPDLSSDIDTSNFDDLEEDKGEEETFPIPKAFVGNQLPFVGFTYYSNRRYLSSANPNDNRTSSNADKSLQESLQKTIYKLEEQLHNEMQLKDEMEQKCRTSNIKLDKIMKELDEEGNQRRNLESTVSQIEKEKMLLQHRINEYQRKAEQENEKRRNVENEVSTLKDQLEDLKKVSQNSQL

Row | SMILES | IC50 [1] [µM] | IC50 [2] [µM] | Peak % Lowering of IOP vs. Control at 0.3% [3] [%]
1 | COc1cccc(Cc2ccc3sc(-c4ccnc(N)n4)c(C)c3c2)c1 [Example 26, 4-(5-(3-Methoxybenzyl)-3-methylbenzo[b]thiophen-2-yl)pyrimidin-2-amine] | < 5 | < 5 | 9.8
2 | Cc1c(-c2ccnc(N)n2)sc2ccc(Cc3cccc(O)c3)cc12 [Example 27, 3-((2-(2-Aminopyrimidin-4-yl)-3-methylbenzo[b]thiophen-5-yl)methyl)phenol] | < 5 | < 5 | 3.6
